Measured values from the supplement of paper PMC10307832.

Tests used:
Assay in all cases: relative viability (nuclei count vs DMSO), 5 days (fraction); higher = more cells survive
QS11 + Tozasertib = compound: C1CC2=C(C1)C=C(C=C2)OC3=NC(=C4C(=N3)N(C=N4)CC5=CC=C(C=C5)C6=CC=CC=C6)N[C@@H](CC7=CC=CC=C7)CO [QS11] + Cc1cc(Nc2cc(N3CCN(C)CC3)nc(Sc3ccc(NC(=O)C4CC4)cc3)n2)n[nH]1 [Tozasertib] (partner 0.1 µM)
Method in brief: (§1)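 The day after seeding in 1536-well plates, lung cancer cell lines were treated by pin tool with a single drug, or with a fixed anchor-drug dose together with five library-drug doses (not always all listed) in √10 steps. After 5 days, a combined fix-and-stain solution (final 0.05% Triton X-100, 1% formaldehyde, 1 ug/ml Hoechst) was added. Nuclei counted on 4× images gave relative viability as treated counts over vehicle counts, reported as the median of duplicate plates.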

QS11 + Foretinib = compound: C1CC2=C(C1)C=C(C=C2)OC3=NC(=C4C(=N3)N(C=N4)CC5=CC=C(C=C5)C6=CC=CC=C6)N[C@@H](CC7=CC=CC=C7)CO [QS11] + COc1cc2c(Oc3ccc(NC(=O)C4(C(=O)Nc5ccc(F)cc5)CC4)cc3F)ccnc2cc1OCCCN1CCOCC1 [Foretinib] (partner 0.25 µM)
Method in brief: as §1

QS11 + Trametinib = compound: C1CC2=C(C1)C=C(C=C2)OC3=NC(=C4C(=N3)N(C=N4)CC5=CC=C(C=C5)C6=CC=CC=C6)N[C@@H](CC7=CC=CC=C7)CO [QS11] + CC(=O)Nc1cccc(-n2c(=O)n(C3CC3)c(=O)c3c(Nc4ccc(I)cc4F)n(C)c(=O)c(C)c32)c1 [Trametinib] (partner 0.02 µM)
Method in brief: as §1

Darinaparsin + Foretinib = compound: C[As](C)SC[C@H](NC(=O)CC[C@H](N)C(=O)O)C(=O)NCC(=O)O [Darinaparsin] + COc1cc2c(Oc3ccc(NC(=O)C4(C(=O)Nc5ccc(F)cc5)CC4)cc3F)ccnc2cc1OCCCN1CCOCC1 [Foretinib] (partner 0.25 µM)
Method in brief: as §1

Row | Cell Line | relative viability (QS11 + Tozasertib; first compound 0.08 µM) | relative viability (QS11 + Tozasertib; first compound 0.253 µM) | relative viability (QS11 + Tozasertib; first compound 0.8 µM) | relative viability (QS11 + Tozasertib; first compound 2.53 µM) | relative viability (QS11 + Tozasertib; first compound 8 µM) | relative viability (QS11 + Foretinib; first compound 0.08 µM) | relative viability (QS11 + Foretinib; first compound 0.253 µM) | relative viability (QS11 + Foretinib; first compound 0.8 µM) | relative viability (QS11 + Foretinib; first compound 2.53 µM) | relative viability (QS11 + Foretinib; first compound 8 µM) | relative viability (QS11 + Trametinib; first compound 0.08 µM) | relative viability (QS11 + Trametinib; first compound 0.253 µM) | relative viability (QS11 + Trametinib; first compound 0.8 µM) | relative viability (QS11 + Trametinib; first compound 2.53 µM) | relative viability (QS11 + Trametinib; first compound 8 µM) | relative viability (Darinaparsin + Foretinib; first compound 0.08 µM) | relative viability (Darinaparsin + Foretinib; first compound 0.8 µM) | relative viability (Darinaparsin + Foretinib; first compound 2.53 µM) | relative viability (Darinaparsin + Foretinib; first compound 8 µM)
1 | LXF-289 | 0.159 | 0.197 | 0.147 | 0.213 | 0.253 | 0.994 | 1.05 | 0.704 | 0.875 | 0.834 | 0.671 | 0.711 | 0.583 | 0.621 | 0.629 | 1.07 | 0.994 | 0.946 | 1.1
2 | NCI-H1437 | 0.44 | 0.45 | 0.398 | 0.344 | 0.304 | 1.31 | 1.23 | 0.973 | 1.17 | 1.12 | 0.551 | 0.561 | 0.474 | 0.477 | 0.499 | 1.35 | 1.3 | 1.24 | 1.32
3 | NCI-H838 | 0.293 | 0.276 | 0.232 | 0.224 | 0.209 | 0.993 | 0.953 | 0.688 | 0.898 | 0.85 | 0.558 | 0.535 | 0.355 | 0.469 | 0.383 | 1.19 | 1.03 | 0.856 | 1.23
4 | NCI-H650 | 0.65 | 0.759 | 0.728 | 0.641 | 0.536 | 1 | 1.11 | 0.994 | 0.924 | 1.02 | 0.825 | 0.934 | 1.06 | 0.959 | 0.983 | 1.09 | 1.05 | 1.13 | 1.03
5 | LK-2 | 0.177 | 0.194 | 0.181 | 0.173 | 0.19 | 1.13 | 1.38 | 1.41 | 1.13 | 1.09 | 0.702 | 1.03 | 0.778 | 0.81 | 0.841 | 1.98 |  | 0.769 | 1.83
6 | NCI-H520 | 0.465 | 0.454 | 0.503 | 0.418 | 0.407 | 0.703 | 1.08 | 1.12 | 0.792 | 0.867 | 0.676 | 0.789 | 0.83 | 0.65 | 0.755 | 1.12 | 0.662 | 0.845 | 0.871
7 | H3255 | 0.639 | 0.853 |  | 0.651 | 0.589 | 0.787 | 0.864 |  | 0.927 | 0.93 | 0.577 | 0.703 |  | 0.631 | 0.585 | 0.781 | 0.863 | 0.913 | 0.854
8 | PC-14 | 0.552 | 0.575 | 0.487 | 0.652 | 0.602 | 1.11 | 0.95 | 0.777 | 0.889 | 1.06 |  | 0.66 | 0.698 | 0.717 | 0.634 | 1.18 | 0.981 | 0.927 | 1.14
9 | HCC-78 | 0.404 | 0.57 | 0.401 | 0.462 | 0.449 | 0.538 | 0.494 | 0.606 | 0.689 | 0.66 | 0.771 | 0.765 | 0.643 | 0.883 | 0.781 | 0.555 | 0.492 | 0.53 | 0.483
10 | CAL-12T | 0.247 | 0.268 | 0.299 | 0.204 | 0.227 | 1.04 | 1.1 | 0.98 | 1.06 | 0.939 | 0.313 | 0.328 | 0.355 | 0.367 | 0.358 | 1.23 | 0.983 | 1.12 | 1.14
11 | NCI-H3122 | 0.45 | 0.496 |  | 0.374 | 0.201 | 0.979 | 1.08 |  | 1.05 | 0.749 | 0.213 | 0.239 |  | 0.253 | 0.343 | 1.03 | 0.964 | 0.94 | 0.789
12 | NCI-H596 | 0.875 | 0.879 | 0.923 | 0.93 | 1.13 | 0.979 | 0.743 | 0.924 | 0.841 | 0.97 | 0.776 | 0.755 | 0.692 | 0.683 | 0.706 | 0.906 | 0.974 | 0.734 | 0.67
13 | NCI-H661 | 0.36 | 0.375 | 0.299 | 0.353 | 0.343 | 1 | 1.02 | 0.913 | 1.05 | 1.03 | 0.624 | 0.594 | 0.473 | 0.46 | 0.477 | 1.01 | 0.995 | 1.08 | 1.26
14 | NCI-H727 | 0.58 | 0.602 | 0.539 | 0.647 | 0.511 | 1.2 | 0.888 | 0.829 | 1.06 | 0.869 | 0.416 | 0.404 | 0.38 | 0.406 | 0.396 | 0.917 | 0.863 | 1.11 | 1
15 | NCI-H1666 | 0.61 | 0.532 | 0.515 | 0.521 | 0.383 | 0.908 | 1.05 | 0.653 | 0.85 | 0.582 | 0.798 | 0.852 | 0.868 | 0.8 | 0.749 | 0.995 | 0.888 | 1.19 | 1.06
16 | COR-L23 | 0.17 | 0.177 | 0.137 | 0.156 | 0.141 | 0.976 | 1.03 | 0.716 | 0.802 | 0.735 | 0.577 | 0.605 | 0.585 | 0.551 | 0.598 | 1.21 | 1.04 | 0.934 | 1.34
17 | NCI-H460 | 0.3 | 0.446 |  | 0.0921 | 0.143 | 1.07 | 0.939 | 0.731 | 1.05 | 0.626 | 0.13 | 0.158 | 0.131 | 0.0849 | 0.0752 | 1.04 | 1.04 | 1.03 | 1.33
